Measured values reported in PubChem BioAssay (NCI).
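Step 1: Grow cells in 96-well plates. Step 2: Expose to compound for 48 hours at 5 concentrations. Step 3: Interpolate endpoints linearly; if unreached, use highest concentration. TGI is the concentration that stops growth completely.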

Assays:
Assay in all cases: NCI anticancer screen, dose series, 48 h
[1] = system: SNB-19 CNS
[2] = system: SK-MEL-5 melanoma
[3] = system: NCI-H23 lung
[4] = system: OVCAR-5 ovarian
[5] = system: OVCAR-4 ovarian
[6] = system: OVCAR-3 ovarian
[7] = system: KM20L2 colon
[8] = system: CCRF-CEM leukemia
[9] = system: HOP-18 NSCLC
[10] = system: SF-295 CNS
[11] = system: M19-MEL melanoma
[12] = system: MOLT-4 leukemia
[13] = system: IGROV1 ovarian
[14] = system: SF-268 CNS
[15] = system: NCI-H460 lung
[16] = system: M14 melanoma
[17] = system: SK-MEL-2 melanoma
[18] = system: MALME-3M melanoma
[19] = system: LXFL 529 NSCLC
[20] = system: DMS 273 small cell lung
[21] = system: NCI-H226 lung
[22] = system: DMS 114 small cell lung
[23] = system: SNB-75 CNS
[24] = system: COLO 205 colon
[25] = system: SF-539 CNS
[26] = system: SNB-78 CNS
[27] = system: HOP-92 NSCLC
[28] = system: RPMI-8226 leukemia
[29] = system: SW-620 colon
[30] = system: HL-60(TB) leukemia
[31] = system: SK-MEL-28 melanoma
[32] = system: CAKI-1 renal
[33] = system: DLD-1 colon
[34] = system: XF 498 CNS
[35] = system: UO-31 renal
[36] = system: ACHN renal
[37] = system: EKVX NSCLC
[38] = system: HCT-15 colon
[39] = system: K-562 leukemia
[40] = system: TK-10 renal
[41] = system: 786-0 renal
[42] = system: A498 renal
[43] = system: SN12C renal
[44] = system: UACC-257 melanoma
[45] = system: HCC-2998 colon
[46] = system: OVCAR-8 ovarian
[47] = system: U251 CNS
[48] = system: SK-OV-3 ovarian
[49] = system: HOP-62 NSCLC
[50] = system: UACC-62 melanoma
[51] = system: A549 NSCLC
[52] = system: NCI-H522 lung
[53] = system: KM12 colon
[54] = system: HT29 colon
[55] = system: HCT-116 colon
[56] = system: RXF 393 renal
[57] = system: LOX IMVI melanoma
[58] = system: MCF7 breast
[59] = system: PC-3 prostate
[60] = system: HS 578T breast
[61] = system: BT-549 breast
[62] = system: T-47D breast
[63] = system: DU-145 prostate
[64] = system: MDA-MB-231 breast
[65] = system: MDA-MB-435
[66] = system: NCI/ADR-RES ovarian
[67] = system: SR leukemia
[68] = system: MDA-N

SMILES: CCn1c(=O)nc2n(-c3ccccc3)c3ccccc3nc-2c1=O
- TGI [1]: 76 µM
- TGI [2]: 22.8 µM
- TGI [3]: > 100 µM
- TGI [4]: 66.4 µM
- TGI [5]: 25.9 µM
- TGI [6]: 43.1 µM
- TGI [7]: 85.4 µM
- TGI [8]: 72.3 µM
- TGI [9]: > 100 µM
- TGI [10]: > 100 µM
- TGI [11]: 25.2 µM
- TGI [12]: 40.4 µM
- TGI [13]: 74.2 µM
- TGI [14]: 85.1 µM
- TGI [15]: > 100 µM
- TGI [16]: 35 µM
- TGI [17]: 76.3 µM
- TGI [18]: 31.7 µM
- TGI [19]: > 100 µM
- TGI [20]: 34.7 µM
- TGI [21]: 63.8 µM
- TGI [22]: 30.3 µM
- TGI [23]: > 100 µM
- TGI [24]: 16 µM
- TGI [25]: 38.8 µM
- TGI [26]: > 100 µM
- TGI [27]: 62.4 µM
- TGI [28]: > 100 µM
- TGI [29]: 86.5 µM
- TGI [30]: 38.5 µM
- TGI [31]: > 100 µM
- TGI [32]: > 100 µM
- TGI [33]: > 100 µM
- TGI [34]: 34.5 µM
- TGI [35]: > 100 µM
- TGI [36]: 68.7 µM
- TGI [37]: > 100 µM
- TGI [38]: 65.4 µM
- TGI [39]: 61.2 µM
- TGI [40]: > 100 µM
- TGI [41]: > 100 µM
- TGI [42]: > 100 µM
- TGI [43]: 64.8 µM
- TGI [44]: 38.7 µM
- TGI [45]: 94 µM
- TGI [46]: 67.9 µM
- TGI [47]: 75.2 µM
- TGI [48]: > 100 µM
- TGI [49]: > 100 µM
- TGI [50]: 31.9 µM
- TGI [51]: > 100 µM
- TGI [52]: > 100 µM
- TGI [53]: > 100 µM

SMILES: Cn1c(=O)nc2n(-c3cc(Cl)ccc3Cl)c3ccccc3nc-2c1=O
- TGI [54]: 5.47 µM
- TGI [1]: 13.3 µM
- TGI [2]: 4.55 µM
- TGI [3]: 4.06 µM
- TGI [4]: 25.7 µM
- TGI [5]: 17.8 µM
- TGI [6]: 9.92 µM
- TGI [7]: 7.9 µM
- TGI [8]: 21.3 µM
- TGI [9]: 25.3 µM
- TGI [10]: 21.2 µM
- TGI [11]: 2.85 µM
- TGI [12]: 28.6 µM
- TGI [13]: 29.7 µM
- TGI [14]: 30.7 µM
- TGI [15]: 13.4 µM
- TGI [16]: 15.2 µM
- TGI [17]: 18.1 µM
- TGI [18]: 12.2 µM
- TGI [19]: 28.3 µM
- TGI [20]: 16.2 µM
- TGI [55]: 16.2 µM
- TGI [21]: 22 µM
- TGI [22]: 4.92 µM
- TGI [23]: 24.6 µM
- TGI [24]: 6.43 µM
- TGI [25]: 19.5 µM
- TGI [26]: 31.6 µM
- TGI [28]: 33.7 µM
- TGI [29]: 6.86 µM
- TGI [56]: 34.1 µM
- TGI [32]: 27.8 µM
- TGI [33]: 16.6 µM
- TGI [34]: 18.9 µM
- TGI [35]: 26.4 µM
- TGI [36]: 13.6 µM
- TGI [37]: 13 µM
- TGI [38]: 15.4 µM
- TGI [39]: > 100 µM
- TGI [40]: 30.4 µM
- TGI [41]: 34.6 µM
- TGI [42]: 35.7 µM
- TGI [43]: 16.7 µM
- TGI [44]: 5.2 µM
- TGI [45]: 9.32 µM
- TGI [46]: 14.4 µM
- TGI [47]: 20.4 µM
- TGI [48]: 91.9 µM
- TGI [49]: 46.4 µM
- TGI [50]: 3.38 µM
- TGI [51]: 21.9 µM
- TGI [52]: 18.8 µM
- TGI [53]: 20.1 µM

SMILES: O=C(OCCO)C1CC2CC1C1(C2)OCCO1 (stereo not drawn)
- TGI [54]: > 100 µM
- TGI [1]: > 100 µM
- TGI [2]: > 100 µM
- TGI [3]: > 100 µM
- TGI [4]: > 100 µM
- TGI [5]: > 100 µM
- TGI [6]: > 100 µM
- TGI [7]: > 100 µM
- TGI [8]: > 100 µM
- TGI [9]: > 100 µM
- TGI [10]: > 100 µM
- TGI [11]: > 100 µM
- TGI [12]: > 100 µM
- TGI [13]: > 100 µM
- TGI [14]: > 100 µM
- TGI [57]: > 100 µM
- TGI [15]: > 100 µM
- TGI [16]: > 100 µM
- TGI [17]: > 100 µM
- TGI [18]: > 100 µM
- TGI [19]: > 100 µM
- TGI [20]: > 100 µM
- TGI [55]: > 100 µM
- TGI [21]: > 100 µM
- TGI [22]: > 100 µM
- TGI [23]: > 100 µM
- TGI [24]: > 100 µM
- TGI [25]: > 100 µM
- TGI [26]: > 100 µM
- TGI [27]: > 100 µM
- TGI [28]: > 100 µM
- TGI [29]: > 100 µM
- TGI [30]: > 100 µM
- TGI [31]: > 100 µM
- TGI [56]: > 100 µM
- TGI [32]: > 100 µM
- TGI [33]: > 100 µM
- TGI [34]: > 100 µM
- TGI [35]: > 100 µM
- TGI [36]: > 100 µM
- TGI [37]: > 100 µM
- TGI [39]: > 100 µM
- TGI [40]: > 100 µM
- TGI [41]: > 100 µM
- TGI [42]: > 100 µM
- TGI [43]: > 100 µM
- TGI [44]: > 100 µM
- TGI [46]: > 100 µM
- TGI [47]: > 100 µM
- TGI [48]: > 100 µM
- TGI [49]: > 100 µM
- TGI [50]: > 100 µM
- TGI [51]: > 100 µM
- TGI [52]: > 100 µM
- TGI [53]: > 100 µM

SMILES: COc1ccc(/C=c2/s/c(=C(\C#N)c3nc4ccccc4[nH]3)n(-c3ccccc3)c2=O)cc1
- TGI [54]: 24.7 µM
- TGI [1]: > 100 µM
- TGI [2]: > 100 µM
- TGI [3]: > 63.5 µM
- TGI [4]: > 100 µM
- TGI [58]: > 100 µM
- TGI [5]: 28.1 µM
- TGI [6]: > 75.3 µM
- TGI [7]: > 100 µM
- TGI [8]: > 100 µM
- TGI [9]: 79 µM
- TGI [10]: > 100 µM
- TGI [11]: > 100 µM
- TGI [12]: > 100 µM
- TGI [59]: 67.3 µM
- TGI [13]: > 100 µM
- TGI [14]: > 100 µM
- TGI [57]: > 100 µM
- TGI [15]: > 74.9 µM
- TGI [16]: > 100 µM
- TGI [17]: > 100 µM
- TGI [18]: > 88.6 µM
- TGI [19]: > 100 µM
- TGI [20]: > 100 µM
- TGI [55]: > 55.7 µM
- TGI [21]: 92.7 µM
- TGI [22]: > 100 µM
- TGI [23]: > 68.8 µM
- TGI [24]: > 100 µM
- TGI [25]: > 61.5 µM
- TGI [27]: 37.7 µM
- TGI [28]: > 100 µM
- TGI [60]: 22.4 µM
- TGI [29]: > 58.9 µM
- TGI [30]: > 100 µM
- TGI [61]: 54.8 µM
- TGI [31]: > 100 µM
- TGI [56]: > 100 µM
- TGI [32]: > 100 µM
- TGI [33]: > 100 µM
- TGI [34]: 88.6 µM
- TGI [62]: > 100 µM
- TGI [35]: > 100 µM
- TGI [36]: > 100 µM
- TGI [37]: > 100 µM
- TGI [63]: > 100 µM
- TGI [64]: 49.5 µM
- TGI [65]: > 100 µM
- TGI [38]: > 100 µM
- TGI [39]: > 100 µM
- TGI [66]: 20.3 µM
- TGI [40]: > 100 µM
- TGI [41]: > 42.1 µM
- TGI [42]: > 76.5 µM
- TGI [43]: > 100 µM
- TGI [67]: > 100 µM
- TGI [44]: > 100 µM
- TGI [45]: > 100 µM
- TGI [46]: 51 µM
- TGI [47]: > 100 µM
- TGI [48]: 71.6 µM
- TGI [49]: > 54 µM
- TGI [50]: > 47.5 µM
- TGI [68]: > 100 µM
- TGI [51]: > 100 µM
- TGI [52]: > 100 µM
- TGI [53]: > 100 µM
